# Tests used:
# [1] = Pharmacokinetics after single peroral 5 mg rifalazil, fed and fasted; assay type: in vivo; conditions: liquid-filled vs microgranulated, beagle dogs
# Method: Pharmacokinetic parameters were determined following a single peroral administration of 5 mg of rifalazil in healthy male beagle dogs. The rifalazil was formulated either as a liquid-filled capsule of Example 5 or as a powder-filled capsule containing microgranulated rifalazil as described in U.S. Pat. No. 5,547,683.
# Both formulations were administered under fed and fasted conditions. All animals were fasted overnight prior to dosing. Animals designated as “fed” were administered a blended combination of dog chow and water in a 1:3 ratio (e.g. 250 g chow and 750 g water) via oral gavage at a dose volume of 20 mL/kg within approximately 30 minutes prior to dosing and food was provided Ad-libitum after approximately 4 hours following dosing. Animals in “fasted” groups were not fed prior to dosing and food was withheld until after approximately 4 hours after dosing. […]
# Pharmacokinetic endpoints and parameters were calculated by noncompartmental analysis (NCA) using WinNonlin®.
# The pharmacokinetic parameters Tmax, Cmax, AUCt, AUC∞, T1/2 (elimination), and F (bioavailability) were calculated as well as the coefficient of variation (CV) in each. […]
# [2] = Rifalazil solubility in surfactants and surfactant mixtures; assay type: physicochemical; conditions: thermodynamic from solid
# Method: The solubility of rifalazil in various surfactants and surfactant mixtures was measured. Excess Rifalazil, drug substance, was equilibrated with the excipient or excipient blend at the indicated temperature for 24 hrs under constant mixing. At the end of the equilibration time, insoluble drug was removed by centrifugation and the supernatant was assayed by UV spectroscopy and/or HPLC to determine the concentration of Rifalazil.
structure (smiles),measurement,setting,value
CO[C@H]1/C=C/O[C@@]2(C)Oc3c(C)c(O)c4c(=O)c(c5oc6cc(N7CCN(CC(C)C)CC7)cc(O)c6nc-5c4c3C2=O)NC(=O)/C(C)=C\C=C\[C@H](C)[C@H](O)[C@@H](C)[C@@H](O)[C@@H](C)[C@H](OC(C)=O)[C@@H]1C [Rifalazil],effect of changes in the formulation upon the elimination half-life (T1/2),[1],no effect
same,solubility at 24 h,"[2]; Formulation M1 (excipient blend), aqueous with cosolvent or surfactant or cyclodextrin, in Formulation M1, 24 hrs equilibration",15.5 mg/mL
same,solubility at 24 h,"[2]; Formulation M3 (excipient blend), aqueous with cosolvent or surfactant or cyclodextrin, in Formulation M3, 24 hrs equilibration",25.8 mg/mL
same,solubility at 24 h,"[2]; Formulation M4 (excipient blend), aqueous with cosolvent or surfactant or cyclodextrin, in Formulation M4, 24 hrs equilibration",34.1 mg/mL
same,solubility at 24 h,"[2]; Formulation M5 (excipient blend), aqueous with cosolvent or surfactant or cyclodextrin, in Formulation M5, 24 hrs equilibration",28.4 mg/mL
same,solubility at 24 h,"[2]; Formulation M6 (excipient blend), aqueous with cosolvent or surfactant or cyclodextrin, in Formulation M6, 24 hrs equilibration",30.8 mg/mL
same,solubility at 24 h,"[2]; Formulation M8 (excipient blend), aqueous with cosolvent or surfactant or cyclodextrin, in Formulation M8, 24 hrs equilibration",26.9 mg/mL
same,solubility at 24 h,"[2]; Formulation M9 (excipient blend), aqueous with cosolvent or surfactant or cyclodextrin, in Formulation M9, 24 hrs equilibration",19.6 mg/mL
same,solubility at 24 h,"[2]; Formulation M10 (excipient blend), aqueous with cosolvent or surfactant or cyclodextrin, in Formulation M10, 24 hrs equilibration",36.9 mg/mL
same,solubility at 24 h,"[2]; Formulations A and B (excipient blend), aqueous with cosolvent or surfactant or cyclodextrin, in Formulations A and B, 24 hrs equilibration",23 mg/mL
same,solubility at 24 h,"[2]; Formulations C and D (excipient blend), aqueous with cosolvent or surfactant or cyclodextrin, in Formulations C and D, 24 hrs equilibration",21 mg/mL
same,solubility at 24 h,"[2]; aqueous with cosolvent or surfactant or cyclodextrin, in Cremophor ELP, 24 hrs equilibration at 37° C.",35 mg/mL
same,solubility at 24 h,"[2]; aqueous with cosolvent or surfactant or cyclodextrin, in Cremophor RH40, 24 hrs equilibration at 37° C.",23 mg/mL
same,solubility at 24 h,"[2]; aqueous with cosolvent or surfactant or cyclodextrin, in Labrafil M 1944 CS, 24 hrs equilibration",41.6 mg/mL
same,solubility at 24 h,"[2]; aqueous with cosolvent or surfactant or cyclodextrin, in Labrafil M 19944 CS:Etocas 35 (5:1), 24 hrs equilibration",29 mg/mL
same,solubility at 24 h,"[2]; aqueous with cosolvent or surfactant or cyclodextrin, in Labrasol, 24 hrs equilibration",23 mg/mL
same,solubility at 24 h,"[2]; aqueous with cosolvent or surfactant or cyclodextrin, in Lauroglycol 90, 24 hrs equilibration",40 mg/mL
same,solubility at 24 h,"[2]; aqueous with cosolvent or surfactant or cyclodextrin, in TPGS, 24 hrs equilibration at 37° C.",22 mg/mL
same,solubility at 24 h,"[2]; oil or lipid, in Oleic Acid, 24 hrs equilibration",59 mg/mL
same,solubility at 24 h,"[2]; oil or lipid, in Peceol, 24 hrs equilibration",14 mg/mL
same,solubility at 24 h,"[2]; organic solvent or mixture, in PEG 400, 24 hrs equilibration",8 mg/mL
same,solubility at 24 h,"[2]; organic solvent or mixture, in PEG 1500, equilibration at 60° C. to melt PEG 1500",62 mg/mL
